Data reported in paper PMC9142922, “Galactosylated Prodrugs: A Strategy to Improve the Profile of Nonsteroidal Anti-Inflammatory Drugs” (Pharmaceuticals, 2022).

What was measured:
[1] = Stability in human serum at 37 °C; details: for degradation in human serum in 24 h / Stability at 37 °C, % compound after 24 h of incubation, Human Serum: 37 °C; for half-life at 200 µM: male, human; for Stability at 37 °C, % compound after 24 h of incubation, Human Serum: unmodified incubated compound, 200 µM, mean ± SD
Experimental: A solution of each compound (10 mM in DMSO) was added to human serum (sterile-filtered from human male AB plasma, USA origin, sterile-filtered, Sigma-Aldrich) and preheated and maintained at 37 °C ± 0.5 °C. Three-hundred microliters of the resulting solutions (200 µM) was withdrawn at appropriate time intervals and added to 300 µL of CH3CN, which contained 0.1% TFA, in order to deproteinize the serum. […] Each clear supernatant was filtered using 0.45 µm PTFE filters (VWR International S.r.l., Milano, Italy) and analyzed via RP-HPLC as described below.
The reverse-phase HPLC procedure allowed the galactosylated prodrugs and their parent drugs to be separated and quantified. […] The analytical column was a ZORBAX Eclipse XDB-C8 (150 × 4.6 mm, 5 µm; Agilent, Santa Clara, CA, USA). The mobile phase consisted of 0.1% aqueous TFA and 0.1% TFA CH3CN 50/50 w/w% at a flow rate of 1.0 mL/min. The injection volume was 20 µL (Rheodyne, Cotati, CA, USA). The column effluent was monitored at 228 nm and 254 nm, referenced against an 800 nm wavelength. The quantitation of compounds was calculated using calibration curves and the linearity of the calibration curves was determined in a concentration range of 1–100 µM (r^2 > 0.99).

[2] = Serum protein binding by ultrafiltration; type: in vitro ADME; details: male, human serum, 1 h at 37 °C, mean ± SD, read-out: Serum Protein Binding % Bound (converted)
Experimental: The serum protein binding properties of the galactosylated prodrugs and parent drugs were investigated using ultrafiltration. The compounds were incubated in human serum, and after 1 h, the concentrations of the compounds in the ultrafiltrate and the original serum were determined by means of RP-HPLC, and used to calculate the binding percentages, which are reported in Table 2.
Free- and protein-bound drug separation was obtained via ultrafiltration using commercially available membrane systems (Centrifree ultrafiltration devices with ultracel YM-T membrane, Merck, KGaA, Darmstadt, Germany). […] One milliliter of the solution was inserted into the sample reservoir of the ultrafiltration device and gently shaken in an orbital shaker for 1 h at 37 °C. […] The concentration of the compound both in the ultrafiltrate and filtrate was analyzed via RP-HPLC under the chromatographic conditions described above and using the calibration curves of standard solutions. […] The recovery of the ultrafiltration process was calculated to observe any possible compound loss during the operations in view of the limited solubility of the tested compounds.

CC(C)Cc1ccc(C(C)C(=O)OC[C@H]2OC(O)[C@H](O)[C@@H](O)[C@H]2O)cc1 (some centres unmarked) [IbuGAL]
degradation in human serum in 24 h [1]: ~50% | half-life at 200 µM [1]: ~24 h | Stability at 37 °C, % compound after 24 h of incubation, Human Serum [1]: 54.1 ± 2.2% | fraction unbound at 1 h, 100 µM [2]: 0.028

CC(C(=O)OC[C@H]1OC(O)[C@H](O)[C@@H](O)[C@H]1O)c1ccc(-c2ccccc2)c(F)c1 (some centres unmarked) [FluGAL]
degradation in human serum in 24 h [1]: ~50% | half-life at 200 µM [1]: ~24 h | Stability at 37 °C, % compound after 24 h of incubation, Human Serum [1]: 57.3 ± 1.4% | fraction unbound at 1 h, 100 µM [2]: 0.039
